Results on 36 compounds are retold here after ChEMBL document CHEMBL3872209, “Inhibitory activity evaluation and mechanistic studies of tetracyclic oxindole derivatives as α-glucosidase inhibitors” (Eur J Med Chem, 2016).

pIC50: −log10 of the molar value. Calls of active or inactive are those of the source. The rule behind the calls is not given here.

Biological target in the first test: not listed separately
Kind of test: Inhibition of Baker's yeast alpha-glucosidase using pNGP as substrate after 30 mins by spectrophotometric analysis. On the set-up: species or system Saccharomyces cerevisiae.
Take `O=C(CC1Oc2ccccc2-c2ccc3c(c21)C(=O)C(=O)N3Cc1ccc(C(F)(F)F)cc1)Nc1ccccc1` (stereo not drawn): the pIC50 is 5.40.

The compound `O=C(CC1Oc2ccccc2-c2ccc3c(c21)C(=O)C(=O)N3Cc1ccc(C(F)(F)F)cc1)Nc1ccc(O)cc1` (stereo not drawn) had a pIC50 of 5.21. On the same count and under the same terms, with `Nc1ccc(-c2ccc(NC(=O)CC3Oc4ccccc4-c4ccc5c(c43)C(=O)C(=O)N5Cc3ccc(C(F)(F)F)cc3)cc2)cc1` (stereo not drawn) the figure was 6.15; with `O=C1C(=O)N(Cc2ccc(C(F)(F)F)cc2)c2ccc3c(c21)C(CC(=O)N1CCNCC1)Oc1ccccc1-3` (stereo not drawn), 4.48. The compound `Nc1ccc(-c2ccc(NC(=O)CC3Nc4ccccc4-c4ccc5c(c43)C(=O)C(=O)N5Cc3ccc(C(F)(F)F)cc3)cc2)cc1` (stereo not drawn) gave a pIC50 of 5.72. Against the preceding compound, the pIC50 is 1.24 log units higher. Regarding `COC(=O)CC1Oc2ccccc2-c2cc3c(cc21)N(C)C(=O)C3=O` (stereo not drawn), the negative logarithm of the IC50 (pIC50) is 3.75. Same read-out and setting: as for `COC(=O)CC1Oc2ccccc2-c2ccc3c(c21)C(=O)C(=O)N3Cc1ccc(C(F)(F)F)cc1` (stereo not drawn), the figure is 4.80; as for `COC(=O)CC1Oc2ccccc2-c2cc3c(c(C)c21)N(Cc1ccc(C(F)(F)F)cc1)C(=O)C3=O` (stereo not drawn), 4.58; as for `COC(=O)CC1Oc2ccccc2-c2ccc3c(c21)C(=O)C(=O)N3Cc1ccc(OC)cc1` (stereo not drawn), 4.49. Still for that read-out and setting: with `O=C(O)CC1Oc2ccccc2-c2ccc3c(c21)C(=O)C(=O)N3Cc1ccc(C(F)(F)F)cc1` (stereo not drawn) the figure was 5.32; with `Cc1c2c(cc3c1N(Cc1ccc(C(F)(F)F)cc1)C(=O)C3=O)-c1ccccc1OC2CC(=O)O` (stereo not drawn), 3.80; with `CNC(=O)CC1Oc2ccccc2-c2cc3c(c(C)c21)N(C)C(=O)C3=O` (stereo not drawn), less than 3.52. Still for that read-out and setting: as for `O=C(O)CC1Nc2ccccc2-c2ccc3c(c21)C(=O)C(=O)N3Cc1ccc(C(F)(F)F)cc1` (stereo not drawn), the figure is 4.10; as for `O=C(O)CC1Oc2ccccc2-c2ccc3c(c21)C(=O)C(=O)N3Cc1ccccc1` (stereo not drawn), 4.80.

`O=C(O)CC1Oc2ccccc2-c2ccc3c(c21)C(F)(F)C(=O)N3Cc1ccc(C(F)(F)F)cc1` (stereo not drawn) showed a pIC50 of 4.17. Still for that read-out and setting: as for `COC(=O)CC1Nc2ccccc2-c2ccc3c(c21)C(=O)C(=O)N3Cc1ccc(C(F)(F)F)cc1` (stereo not drawn), the figure is 4.43; as for `O=C1C(=O)N(Cc2ccc(C(F)(F)F)cc2)c2ccc3c(c21)C(CC(=O)N1CCOCC1)Oc1ccccc1-3` (stereo not drawn), less than 3.52; as for `NC(=O)CC1Oc2ccccc2-c2ccc3c(c21)C(=O)C(=O)N3Cc1ccc(C(F)(F)F)cc1` (stereo not drawn), 4.36. In turn, `O=C(CC1Nc2ccccc2-c2ccc3c(c21)C(=O)C(=O)N3Cc1ccc(C(F)(F)F)cc1)Nc1ccccc1` (stereo not drawn) had a pIC50 of 5.34. On to `COC(=O)CC1Nc2ccccc2-c2ccc3c(c21)C(=O)C(=O)N3C` (stereo not drawn), for which the pIC50 was 3.54. Against the preceding compound, the pIC50 is 1.80 log units lower. Turning to `CN1C(=O)C(=O)c2c1ccc1c2C(CC(=O)Nc2ccc(-c3ccc(N)cc3)cc2)Nc2ccccc2-1` (stereo not drawn), the pIC50 is 5.08. On to `COC(=O)CC1Oc2ccccc2-c2ccc3c(c21)C(=O)C(=O)N3C` (stereo not drawn), for which the pIC50 was 3.98. Still for that read-out and setting: with `Cc1cc2c(c3c1N(Cc1ccc(C(F)(F)F)cc1)C(=O)C3=O)C(CC(=O)O)Oc1ccccc1-2` (stereo not drawn) the figure was 4.29. On the same count and under the same terms, with `O=C(O)CC1Oc2ccccc2-c2ccc3c(c21)/C(=N/O)C(=O)N3Cc1ccc(C(F)(F)F)cc1` (stereo not drawn) the figure was 4.32; with `CN1C(=O)C(=O)c2c1ccc1c2C(CC(=O)O)Nc2ccccc2-1` (stereo not drawn), 3.73.

The compound `CNC(=O)CC1Oc2ccccc2-c2ccc3c(c21)C(=O)C(=O)N3Cc1ccc(C(F)(F)F)cc1` (stereo not drawn) showed a pIC50 of 4.93. This pIC50 is 1.20 log units higher than that of the compound before. For `Cc1c2c(cc3c1N(C)C(=O)C3=O)-c1ccccc1OC2CC(=O)Nc1ccccc1` (stereo not drawn), the pIC50 was 4.44. For `COC(=O)CC1Oc2ccccc2-c2cc3c(c(C)c21)N(C)C(=O)C3=O` (stereo not drawn), the pIC50 is 4.73. In turn, `COC(=O)CC1Oc2ccccc2-c2ccc3c(c21)C(=O)C(=O)N3Cc1ccccc1` (stereo not drawn) had a pIC50 of 4.92. Same read-out and setting: as for `COc1ccc(NC(=O)CC2Oc3ccccc3-c3ccc4c(c32)C(=O)C(=O)N4Cc2ccc(C(F)(F)F)cc2)cc1` (stereo not drawn), the figure is 5.29.

On to `CN(C)CCNC(=O)CC1Oc2ccccc2-c2ccc3c(c21)C(=O)C(=O)N3Cc1ccc(C(F)(F)F)cc1` (stereo not drawn), for which the pIC50 was 3.79. On the same count and under the same terms, as for `CN1C(=O)C(=O)c2c1ccc1c2C(CC(=O)Nc2ccccc2)Nc2ccccc2-1` (stereo not drawn), the figure is 3.65; as for `O=C1C(=O)N(Cc2ccc(C(F)(F)F)cc2)c2ccc3c(c21)C(CC(=O)N1CCCCC1)Oc1ccccc1-3` (stereo not drawn), 5.36; as for `COC(=O)CC1Nc2ccccc2-c2ccc3c(c21)C(=O)C(=O)N3Cc1ccc(OC)cc1` (stereo not drawn), 4.34.

The compound `Cc1c2c(cc3c1N(C)C(=O)C3=O)-c1ccccc1OC2CC(=O)O` (stereo not drawn) had a pIC50 of less than 3.52. For the compound `Cc1c2c(cc3c1N(C)C(=O)C3=O)-c1ccccc1OC2CC(=O)Nc1ccc(-c2ccc(N)cc2)cc1` (stereo not drawn), the pIC50 is 5.28.

A further test deals with Saccharomyces cerevisiae. The test can be described thus: Mixed type inhibition of Baker's yeast alpha-glucosidase at 1 to 1.5 uM using varying pNGP substrate levels preincubated for 30 mins followed by substrate addition by Lineweaver-Burk plot method.
With `Nc1ccc(-c2ccc(NC(=O)CC3Oc4ccccc4-c4ccc5c(c43)C(=O)C(=O)N5Cc3ccc(C(F)(F)F)cc3)cc2)cc1` (stereo not drawn), the inhibition entry is “Active”.

In a further test the test system is Saccharomyces cerevisiae. The test can be described thus: […] inhibition of Baker's yeast alpha-glucosidase at 0.5 to 1 uM after 30 mins by Lineweaver-Burk plot method.
As for `Nc1ccc(-c2ccc(NC(=O)CC3Oc4ccccc4-c4ccc5c(c43)C(=O)C(=O)N5Cc3ccc(C(F)(F)F)cc3)cc2)cc1` (stereo not drawn), the inhibition result is “Active”.

The test system of a further test is Saccharomyces cerevisiae. The test can be described thus: Irreversible inhibition of Baker's yeast alpha-glucosidase at 20 uM after 24 hrs by dialysis method.
As for `Nc1ccc(-c2ccc(NC(=O)CC3Oc4ccccc4-c4ccc5c(c43)C(=O)C(=O)N5Cc3ccc(C(F)(F)F)cc3)cc2)cc1` (stereo not drawn), the inhibition result is “Active”.

The test system of a further test is Saccharomyces cerevisiae. Kind of test: Binding affinity to Baker's yeast alpha-glucosidase at 5 to 50 uM after 30 mins by tryptophan fluorescence spectrophotometric method.
For `Nc1ccc(-c2ccc(NC(=O)CC3Oc4ccccc4-c4ccc5c(c43)C(=O)C(=O)N5Cc3ccc(C(F)(F)F)cc3)cc2)cc1` (stereo not drawn), the result was Active.

The subject of another test is Saccharomyces cerevisiae. The test can be described thus: Binding affinity to Baker's yeast alpha-glucosidase after 30 mins by tryptophan fluorescence spectrophotometric method.
As for `Nc1ccc(-c2ccc(NC(=O)CC3Oc4ccccc4-c4ccc5c(c43)C(=O)C(=O)N5Cc3ccc(C(F)(F)F)cc3)cc2)cc1` (stereo not drawn), the Activity entry is “Dose-dependent effect”.

The test system of a further test is Saccharomyces cerevisiae. The test can be described thus: Binding affinity to Baker's yeast alpha-glucosidase assessed as reduction in enzyme surface hydrophobicity after 30 mins by Bis-ANS dye based spectrofluorometric method.
For the compound `Nc1ccc(-c2ccc(NC(=O)CC3Oc4ccccc4-c4ccc5c(c43)C(=O)C(=O)N5Cc3ccc(C(F)(F)F)cc3)cc2)cc1` (stereo not drawn), the Activity entry was “Dose-dependent effect”.

For the next test, the system named is Saccharomyces cerevisiae. The test can be described thus: Potency index, ratio of acarbose IC50 to compound IC50 for inhibition of Baker's yeast alpha-glucosidase.
For the compound `Nc1ccc(-c2ccc(NC(=O)CC3Oc4ccccc4-c4ccc5c(c43)C(=O)C(=O)N5Cc3ccc(C(F)(F)F)cc3)cc2)cc1` (stereo not drawn), the Ratio IC50 is 165 to 170.

As a reminder, the pIC50 is the IC50 on a negative log10 scale, so that one unit is a factor of ten. Low values mean a large IC50, high ones a small IC50.
